The assay deals with androgen receptor (AR) in LNCaP and/or VCaP cells. Nature of the assay: Androgen Receptor ELISA assay (AR degradation). Type of assay: cell-based. The note with it: degradation of AR ELISA in LNCaP and/or VCaP cells; Table 2C; read-out: DC50 Code*. The procedure:
Androgen Receptor ELISA Assay. […] The protocols used with VCaP cells are described below.
The cells were grown for a minimum of 3 days.
(2)(i) A 10× stock plate in media was made; (ii) 2.5 μL of the 1000× stock was transferred to a new 10× stock plate (use 12 channel pipet, start at A (DMSO control) work thru H. When 247.5 µL of media was added to this plate, it served as a 10× stock; (iii) made media+1 nM R1881 for making 10× stock plate; (iv) added 247.5 μL of media with 1 nM R1881 to each well of the 10× stock plate, mix.
Then 22 μL of 10× stock was added to cells and incubated for 5 hours. […] Media was aspirated, and 100 μL 1× cell lysis buffer/well was added. The cells were placed on a shaker located in a cold room for 10 minutes and shaken at speed 7. The lysate mixture was mix and 20 μL transferred to 100 μl of Diluent in ELISA plate (0.15 μg/ml-[…]). The lysate-diluent mixture was store at 4° C. overnight on a shaker located in a cold room at speed 5 (gentle swirl).
The lysate-diluent mixture was shaken for 30 minutes at 37° C. The mouse AR antibody, anti-mouse antibody, TMB, and STOP solution were allowed to come to room temperature. The 1×ELISA buffer included in kit was made and loaded in reservoir. Media from the plate was discarded, the ELISA plate was tapped hard on paper towel, and washed 4×200 μl ELISA wash buffer using a plate washer for the first three washes and an eight channel aspirator for the fourth wash to more thoroughly aspirate the solution.
Next, 100 μL/well of mouse AR detection Ab was added; the plate was covered and shaken at 37° C. for 1 hour; media was discarded from the plates, the plates tapped on a paper towel and washed four times with 200 μL ELISA wash buffer with a plate washer for the first three washes and an eight channel aspirator for the fourth wash; 100 μL/well of anti-mouse—HRP conjugated Ab (comes with the kit) was added; the plates was cover and shaken at 37° C. for 30 minutes; the TMB reagent was allowed to come to room temperature; the media from the plate was discarded, the plates tapped on paper towel, and washed four times with 200 μL ELISA wash buffer with a plate washer for the first three washes and an eight channel aspirator for the fourth wash; plates were tapped on paper towel; 100 μL TMB was added to each well and the plate shaken for 2 minutes—while watching color. STOP solution (100 μL) was added when light blue color developed.
Data was analyzed and plotted using GraphPad Prism software. Exemplary compounds of Tables 1A, 1B, and 1C were assayed and the data shown below in Tables 2A, 2B, and 2C. DC50 (nM) categories (degradation of AR ELISA in LNCaP and/or VCaP cells) of Tables 2A, 2B, and 2C are as follows: A<1 nM; 1≤B<10 nM; 10≤C<100 nM; D≥100 nM. Dmax (%) categories (degradation of AR ELISA in LNCaP and/or VCaP cells) of Table 2 are as follows: A≥70; 50≤B<70; C<50

SMILES strings stand for the structures.

DC50 data for twelve molecules are collected here from patent US20260053932A1, “COMPOUNDS AND METHODS FOR THE TARGETED DEGRADATION OF ANDROGEN RECEPTOR AND ASSOCIATED METHODS OF USE” (Arvinas Operations, Inc., priority 2020, published 2026).

Broadly, the DC50 is the midpoint of the concentration-degradation curve. For the molecule `COCCN(CC1CCN(c2ccc(C(=O)N[C@H]3C(C)(C)[C@H](Oc4cc(C)c(C#N)c(C)c4)C3(C)C)cc2)CC1)[C@H]1C[C@H](Oc2cc3c(cc2OC)C(=O)N(C2CCC(=O)NC2=O)C3=O)C1` (mixture of isomers) [compound 170, rac-N-((1r,3r)-3-(4-cyano-3,5-dimethylphenoxy)-2,2,4,4-tetramethylcyclobutyl)-4-(4-((((1r,3r)-3-((2-(2,6-dioxopiperidin-3-yl)-6-methoxy-1,3-dioxoisoindolin-5-yl)oxy)cyclobutyl)(2-methoxyethyl)amino)methyl)piperidin-1-yl)benzamide], the DC50 is under 1 nM. The same measure for `CCN(C1CCN(c2ccc(C(=O)N[C@H]3C(C)(C)[C@H](Oc4cc(C)c(C#N)c(C)c4)C3(C)C)cc2)CC1)[C@H]1C[C@H](Oc2ccc3c(c2)C(=O)N(C2CCC(=O)NC2=O)C3=O)C1` (mixture of isomers) [compound 173, rac-N-((1r,3r)-3-(4-cyano-3,5-dimethylphenoxy)-2,2,4,4-tetramethylcyclobutyl)-4-(4-(((1r,3r)-3-((2-(2,6-dioxopiperidin-3-yl)-1,3-dioxoisoindolin-5-yl)oxy)cyclobutyl) (ethyl)amino)piperidin-1-yl)benzamide]: under 1 nM; for `COc1cc(O[C@H]2C(C)(C)[C@H](NC(=O)c3ccc(N4CC(CN(C(C)C)[C@H]5C[C@H](Oc6ccc7c(c6)C(=O)N(C6CCC(=O)NC6=O)C7=O)C5)C4)cc3)C2(C)C)ccc1C#N` (mixture of isomers) [compound 176, rac-N-((1r,3r)-3-(4-cyano-3-methoxyphenoxy)-2,2,4,4-tetramethylcyclobutyl)-4-(3-((((1r,3r)-3-((2-(2,6-dioxopiperidin-3-yl)-1,3-dioxoisoindolin-5-yl)oxy)cyclobutyl) (isopropyl)amino)methyl)azetidin-1-yl)benzamide]: under 1 nM; for `COc1cc(O[C@H]2C(C)(C)[C@H](NC(=O)c3cnc(N4CCC(CN(C(C)C)[C@H]5C[C@H](Oc6cccc7c6CN(C6CCC(=O)NC6=O)C7=O)C5)CC4)cn3)C2(C)C)ccc1C#N` (mixture of isomers) [compound 177, rac-N-((1r,3r)-3-(4-cyano-3-methoxyphenoxy)-2,2,4,4-tetramethylcyclobutyl)-5-(4-((((1r,3r)-3-((2-(2,6-dioxopiperidin-3-yl)-1-oxoisoindolin-4-yl)oxy)cyclobutyl) (isopropyl)amino)methyl)piperidin-1-yl)pyrazine-2-carboxamide]: under 1 nM. The same measure for `Cc1cc(O[C@H]2C(C)(C)[C@H](NC(=O)c3ccc(N4CCC(O[C@H]5C[C@H](Oc6ccc7c(c6)C(=O)N(C6CCC(=O)NC6=O)C7=O)C5)CC4)cc3)C2(C)C)cc(C)c1C#N` (mixture of isomers) [compound 178, N-((1r,3r)-3-(4-cyano-3,5-dimethylphenoxy)-2,2,4,4-tetramethylcyclobutyl)-4-(4-((1r,3r)-3-((2-(2,6-dioxopiperidin-3-yl)-1,3-dioxoisoindolin-5-yl)oxy)cyclobutoxy)piperidin-1-yl)benzamide]: under 1 nM; for `[2H]C([2H])([2H])OCCN(CC1CCN(c2ccc(C(=O)N[C@H]3C(C)(C)[C@H](Oc4cc(C)c(C#N)c(C)c4)C3(C)C)cc2)CC1)[C@H]1C[C@H](Oc2cc(OC([2H])([2H])[2H])c3c(c2)C(=O)N(C2CCC(=O)NC2=O)C3=O)C1` (mixture of isomers) [compound 181, rac-N-((1r,3r)-3-(4-cyano-3,5-dimethylphenoxy)-2,2,4,4-tetramethylcyclobutyl)-4-(4-((((1r,3r)-3-((2-(2,6-dioxopiperidin-3-yl)-7-(methoxy-d3)-1,3-dioxoisoindolin-5-yl)oxy)cyclobutyl)(2-(methoxy-d3)ethyl)amino)methyl)piperidin-1-yl)benzamide]: under 1 nM; for `Cc1cc(O[C@H]2C(C)(C)[C@H](NC(=O)c3ccc(N4CCC5(CC4)CN(CCOc4ccc6c(c4)C(=O)N(C4CCC(=O)NC4=O)C6=O)CCO5)cc3)C2(C)C)cc(C)c1C#N` (mixture of isomers) [compound 182, rac-N-((1r,3r)-3-(4-cyano-3,5-dimethylphenoxy)-2,2,4,4-tetramethylcyclobutyl)-4-(4-(2-((2-(2,6-dioxopiperidin-3-yl)-1,3-dioxoisoindolin-5-yl)oxy)ethyl)-1-oxa-4,9-diazaspiro[5.5]undecan-9-yl)benzamide]: under 1 nM. The same measure for `Cc1cc(O[C@H]2C(C)(C)[C@H](NC(=O)c3cnc(N4CCC(CN(C(C)C)[C@H]5C[C@H](Oc6cccc7c6CN(C6CCC(=O)NC6=O)C7=O)C5)CC4)cn3)C2(C)C)cc(C)c1C#N` (mixture of isomers) [compound 185, rac-N-((1r,3r)-3-(4-cyano-3,5-dimethylphenoxy)-2,2,4,4-tetramethylcyclobutyl)-5-(4-((((1r,3r)-3-((2-(2,6-dioxopiperidin-3-yl)-1-oxoisoindolin-4-yl)oxy)cyclobutyl) (isopropyl)amino)methyl)piperidin-1-yl)pyrazine-2-carboxamide]: under 1 nM; for `Cc1cc(O[C@H]2C(C)(C)[C@H](NC(=O)c3ccc(N4CCC(CN(C)[C@H]5C[C@H](Oc6ccc7c(c6)C(=O)N(C6CCC(=O)NC6=O)C7=O)C5)CC4)cc3)C2(C)C)cc(C)c1C#N` (mixture of isomers) [compound 186, rac-N-((1r,3r)-3-(4-cyano-3,5-dimethylphenoxy)-2,2,4,4-tetramethylcyclobutyl)-4-(4-((((1r,3r)-3-((2-(2,6-dioxopiperidin-3-yl)-1,3-dioxoisoindolin-5-yl)oxy)cyclobutyl) (methyl)amino)methyl)piperidin-1-yl)benzamide]: under 1 nM. With `Cc1cc(O[C@H]2C(C)(C)[C@H](NC(=O)c3ccc(N4CCC(CN(CCN5CCOCC5)[C@H]5C[C@H](Oc6ccc7c(c6)C(=O)N(C6CCC(=O)NC6=O)C7=O)C5)CC4)cc3)C2(C)C)cc(C)c1C#N` (mixture of isomers) [compound 188, rac-N-((1r,3r)-3-(4-cyano-3,5-dimethylphenoxy)-2,2,4,4-tetramethylcyclobutyl)-4-(4-((((1r,3r)-3-((2-(2,6-dioxopiperidin-3-yl)-1,3-dioxoisoindolin-5-yl)oxy)cyclobutyl)(2-morpholinoethyl)amino)methyl)piperidin-1-yl)benzamide], the half-maximal degradation concentration (DC50) is under 1 nM. The same measure for `COc1cc(O[C@H]2C[C@H](N(C)C3CCN(c4ccc(C(=O)N[C@H]5C(C)(C)[C@H](Oc6cc(C)c(C#N)c(C)c6)C5(C)C)cc4)CC3)C2)cc2c1C(=O)N(C1CCC(=O)NC1=O)C2=O` (mixture of isomers) [compound 189, rac-N-((1r,3r)-3-(4-cyano-3,5-dimethylphenoxy)-2,2,4,4-tetramethylcyclobutyl)-4-(4-(((1r,3r)-3-((2-(2,6-dioxopiperidin-3-yl)-7-methoxy-1,3-dioxoisoindolin-5-yl)oxy)cyclobutyl) (methyl)amino)piperidin-1-yl)benzamide]: under 1 nM; for `COCCN(CC1CC2(C1)CN(c1ccc(C(=O)N[C@H]3C(C)(C)[C@H](Oc4ccc(C#N)c(OC)c4)C3(C)C)cc1)C2)[C@H]1C[C@H](Oc2ccc3c(c2)C(=O)N(C2CCC(=O)NC2=O)C3=O)C1` (mixture of isomers) [compound 190, rac-N-((1r,3r)-3-(4-cyano-3-methoxyphenoxy)-2,2,4,4-tetramethylcyclobutyl)-4-(6-((((1r,3r)-3-((2-(2,6-dioxopiperidin-3-yl)-1,3-dioxoisoindolin-5-yl)oxy)cyclobutyl)(2-methoxyethyl)amino)methyl)-2-azaspiro[3.3]heptan-2-yl)benzamide]: under 1 nM.
